Assay results from patent publication US20110195896A1 (CASE WESTERN RESERVE UNIVERSITY, priority 2008, published 2011).
Entries after “also recorded” stand apart in the source; their conditions may differ. Like-named read-outs stand apart in the source and are kept apart here.

Columns and labels:
[1] = biological target: IGF Type I receptor (IGFR) (Homo sapiens, UniProt P08069); assay: Competitive receptor-binding assay, epitope-tagged IGF Type I receptor
Experimental: (§1) Relative activity may be defined by comparison of the dissociation constants (Keq) governing the hormone-receptor binding reaction.
(§2) Receptor-Binding Assays. […] This assay employs the purified epitope-tagged receptor (IR-A, IR-B, or IGFR) using a microtiter-plate antibody-capture assay as known in the art. The epitope tag consists of three tandem repeats of the FLAG epitope. Microtiter strip plates (Nunc Maxisorb) were incubated overnight at 4° C. with anti-FLAG IgG (100 μl/well of […] in phosphate-buffered saline). Binding data were analyzed by a single-site heterologous competition binding model. A corresponding microtiter plate antibody assay using the epitope-tagged IGF Type I receptor was employed to assess cross-binding of analogues to this homologous receptor.

[2] = biological target: insulin receptor isoform B (IR-B, HIRB) (Homo sapiens, UniProt P06213); assay: Competitive receptor-binding assay, 125I-insulin tracer, epitope-tagged receptor antibody capture (IR-B); settings: normalized to 100% = binding affinity of wild-type human insulin for IR-A
Experimental: as §1, §2

[3] = biological target: insulin receptor isoform A (IR-A, HIRA) (Homo sapiens, UniProt P06213); assay: Competitive receptor-binding assay, 125I-insulin tracer, epitope-tagged receptor antibody capture (IR-A); settings: ratio of IR-A to IR-B binding
Experimental: as §1, §2

insulin receptor = insulin receptor (Homo sapiens, UniProt P06213); settings: background; cited from earlier work

Sequence of IGF Type I receptor (IGFR) (P08069 31-736 limits assumed): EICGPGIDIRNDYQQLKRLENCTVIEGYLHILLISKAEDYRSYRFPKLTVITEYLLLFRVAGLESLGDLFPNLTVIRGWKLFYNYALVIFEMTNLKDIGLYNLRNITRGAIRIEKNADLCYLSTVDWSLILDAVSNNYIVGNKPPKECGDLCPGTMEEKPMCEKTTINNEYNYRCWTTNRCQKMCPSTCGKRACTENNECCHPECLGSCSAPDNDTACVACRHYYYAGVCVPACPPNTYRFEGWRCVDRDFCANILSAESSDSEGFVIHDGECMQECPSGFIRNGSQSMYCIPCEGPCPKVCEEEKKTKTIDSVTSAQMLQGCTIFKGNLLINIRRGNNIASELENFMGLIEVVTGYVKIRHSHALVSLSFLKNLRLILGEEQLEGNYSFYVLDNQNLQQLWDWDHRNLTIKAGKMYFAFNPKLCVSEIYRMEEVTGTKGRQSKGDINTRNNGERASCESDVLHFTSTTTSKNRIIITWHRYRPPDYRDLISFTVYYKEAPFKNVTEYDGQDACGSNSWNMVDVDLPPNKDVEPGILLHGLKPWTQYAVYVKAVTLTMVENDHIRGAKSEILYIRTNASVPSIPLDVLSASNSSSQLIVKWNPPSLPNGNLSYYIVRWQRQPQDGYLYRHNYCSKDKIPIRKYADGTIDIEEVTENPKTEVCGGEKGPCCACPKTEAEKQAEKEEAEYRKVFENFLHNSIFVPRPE
Sequence of IGF Type I receptor (IGFR) (P08069 741-1367 partner limits assumed): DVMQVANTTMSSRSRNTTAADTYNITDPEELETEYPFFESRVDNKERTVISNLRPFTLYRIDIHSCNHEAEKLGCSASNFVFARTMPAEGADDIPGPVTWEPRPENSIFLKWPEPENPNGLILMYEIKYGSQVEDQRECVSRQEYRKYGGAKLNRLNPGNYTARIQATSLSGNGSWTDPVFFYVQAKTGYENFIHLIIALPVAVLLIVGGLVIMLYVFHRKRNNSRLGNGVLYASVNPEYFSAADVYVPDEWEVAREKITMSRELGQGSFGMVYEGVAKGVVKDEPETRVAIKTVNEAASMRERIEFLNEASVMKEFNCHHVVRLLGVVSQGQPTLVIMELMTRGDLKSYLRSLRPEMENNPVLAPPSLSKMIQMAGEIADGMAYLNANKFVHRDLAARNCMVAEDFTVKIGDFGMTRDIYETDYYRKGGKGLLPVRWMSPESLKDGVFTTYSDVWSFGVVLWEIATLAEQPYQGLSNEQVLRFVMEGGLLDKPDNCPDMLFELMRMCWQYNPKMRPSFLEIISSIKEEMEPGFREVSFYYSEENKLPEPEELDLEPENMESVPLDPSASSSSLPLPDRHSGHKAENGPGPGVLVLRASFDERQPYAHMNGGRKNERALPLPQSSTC

CC[C@H](C)[C@@H]1NC(=O)CNC(=O)[C@H](CCCNC(=N)N)NC(=O)[C@H](CCCNC(=N)N)NC(=O)[C@@H]2CCCN2C(=O)CNC(=O)CNC(=O)CNC(=O)[C@H]([C@@H](C)O)NC(=O)[C@@H]2CCCN2C(=O)[C@H](CC(=O)O)NC(=O)[C@H]([C@@H](C)O)NC(=O)[C@H](Cc2ccc(O)cc2)NC(=O)[C@H](Cc2ccccc2)NC(=O)[C@H](Cc2ccccc2)NC(=O)CNC(=O)[C@H](CCCNC(=N)N)NC(=O)[C@H](CCC(=O)O)NC(=O)CNC(=O)[C@@H]2CSSC[C@@H](C(=O)N[C@@H](CC(N)=O)C(=O)O)NC(=O)[C@H](Cc3ccc(O)cc3)NC(=O)[C@H](CC(N)=O)NC(=O)[C@H](CCC(=O)O)NC(=O)[C@H](CC(C)C)NC(=O)[C@H](CCC(N)=O)NC(=O)[C@H](Cc3ccc(O)cc3)NC(=O)[C@H](CC(C)C)NC(=O)[C@H](CO)NC(=O)[C@@H]3CSSC[C@H](NC(=O)[C@H](CCC(N)=O)NC(=O)[C@H](CCC(=O)O)NC(=O)[C@H](C(C)C)NC1=O)C(=O)N[C@@H](CSSC[C@H](NC(=O)[C@H](CC(C)C)NC(=O)[C@H](Cc1c[nH]cn1)NC(=O)[C@H](CCC(N)=O)NC(=O)[C@H](CC(N)=O)NC(=O)[C@@H](NC(=O)[C@@H](N)Cc1ccccc1)C(C)C)C(=O)NCC(=O)N[C@@H](CO)C(=O)N[C@@H](Cc1c[nH]cn1)C(=O)N[C@@H](CC(C)C)C(=O)N[C@@H](C(C)C)C(=O)N[C@@H](CCC(=O)O)C(=O)N[C@@H](C)C(=O)N[C@@H](CC(C)C)C(=O)N[C@@H](Cc1ccc(O)cc1)C(=O)N[C@@H](CC(C)C)C(=O)N[C@@H](C(C)C)C(=O)N2)C(=O)N[C@@H](Cc1c[nH]cn1)C(=O)N[C@@H](CO)C(=O)N[C@@H]([C@@H](C)CC)C(=O)N3 [[His^A8, Asp^B28, Pro^B29]-SCI]
Kd [1]: 27.6 ± 1.18 nM

Lantus ®
IGFR Relative Affinity ([1]; absolute number relative to IGF-1 (=1)): 0.015 | IGFR Relative Affinity ([1]; absolute number relative to unmodified human insulin (=1)): 2-3 | Kd ([1]; read-out: IGFR Kd): 3.14 ± 0.44 nM

insulin-like growth factor II [IGF-II]
RELATIVE AFFINITY INSULIN RECEPTOR Isoform B [2]: 4% | selectivity / preference for IR-A relative to IR-B [3]: between fourfold and tenfold; also recorded: greater than twofold preference for IR-A | affinity for either IR isoform relative to human insulin (insulin receptor): < 20%
